Test [1] deals with wildtype Wnt signaling cascade. Kind of test: HEK293 TOP Assay (Super TopFlash luciferase reporter, Wnt-3a stimulated). Type of test: cell-based. Particulars: Homo sapiens, HEK293, 16 h, HEK293 TOP reporter cell line, Wnt-3a at EC50, 16 hours incubation, compound dilution series 50 μM to 15 nM. A digest of the protocol:
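Compounds (50 μM down to 15 nM, 3.16-fold steps, in CAFTY buffer pH 7.4, 2 mM Ca2+, 0.01% BSA) tested in parallel on TOP and FOP HEK293 reporter lines to define selective wildtype Wnt inhibition. Pathway driven by recombinant human Wnt-3a applied at 2500–5 ng/ml in two-fold dilutions.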
On the technique in general: In a reporter assay the amount or activity of a reporter protein is the signal.

The target of the next test is T1, TNKS2 (Homo sapiens, UniProt Q9H2K2).
T1 sequence (Q9H2K2 1-1166): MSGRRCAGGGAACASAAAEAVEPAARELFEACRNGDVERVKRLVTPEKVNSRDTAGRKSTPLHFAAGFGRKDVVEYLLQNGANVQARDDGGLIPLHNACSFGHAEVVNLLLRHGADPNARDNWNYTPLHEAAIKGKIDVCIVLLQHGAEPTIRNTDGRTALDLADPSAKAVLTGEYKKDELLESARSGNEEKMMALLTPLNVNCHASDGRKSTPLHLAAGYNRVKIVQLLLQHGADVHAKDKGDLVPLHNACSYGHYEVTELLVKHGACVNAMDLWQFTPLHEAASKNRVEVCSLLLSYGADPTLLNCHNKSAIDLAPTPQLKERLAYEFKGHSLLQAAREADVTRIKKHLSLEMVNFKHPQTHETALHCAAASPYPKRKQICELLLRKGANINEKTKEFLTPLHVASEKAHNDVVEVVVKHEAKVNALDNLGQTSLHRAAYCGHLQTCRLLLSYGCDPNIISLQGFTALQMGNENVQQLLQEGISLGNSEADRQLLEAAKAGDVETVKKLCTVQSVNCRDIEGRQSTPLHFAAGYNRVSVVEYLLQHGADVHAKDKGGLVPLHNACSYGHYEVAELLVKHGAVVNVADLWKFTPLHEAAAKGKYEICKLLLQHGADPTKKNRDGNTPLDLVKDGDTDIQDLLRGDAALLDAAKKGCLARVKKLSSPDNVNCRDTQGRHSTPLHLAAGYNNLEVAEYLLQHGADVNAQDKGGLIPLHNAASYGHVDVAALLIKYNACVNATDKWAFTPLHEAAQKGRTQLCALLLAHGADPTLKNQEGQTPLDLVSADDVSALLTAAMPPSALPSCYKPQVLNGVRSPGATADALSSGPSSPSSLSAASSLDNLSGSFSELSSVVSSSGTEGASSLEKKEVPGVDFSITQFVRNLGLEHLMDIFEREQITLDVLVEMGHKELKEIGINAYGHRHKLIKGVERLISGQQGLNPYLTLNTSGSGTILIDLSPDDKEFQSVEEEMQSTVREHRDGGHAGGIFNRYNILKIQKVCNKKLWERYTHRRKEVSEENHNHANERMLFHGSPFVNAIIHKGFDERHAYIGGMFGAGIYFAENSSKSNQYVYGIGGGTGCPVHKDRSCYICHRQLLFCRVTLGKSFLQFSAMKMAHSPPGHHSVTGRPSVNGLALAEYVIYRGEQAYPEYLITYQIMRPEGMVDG
In words: Modified TNKS2 Assay 3 (BPS kit #80578, biotin-NAD+, 96 well). Type of test: biochemical. Particulars: human TNKS2, BPS kit #80578, 96 well. As to the method: The potency of the compounds against human TNKS2 according to the invention was assessed using a commercially available biotin/streptavidin binding assay kits from BPS Bioscience, San Diego, USA (Catalog #80578 for TNKS2). The incorporation of a biotin-labeled NAD+ during the […] catalyzed ribosylation of a suitable protein substrate was detected using with a streptavidin-HRP coupled chemi-luminescent readout. The intensity of the readout signal is proportional to the incorporated NAD^+. Inhibition of TNKS2 leads to a decreased incorporation of NAD^+ and consequently to a lower readout signal intensity in the corresponding TNKS2 assays. The concentration of a test compound that inhibits the enzyme activity by 50% (corresponds to half of the normed readout signal intensity) is reported as IC50. The assay conducted in a 96 well MTP format according to the manufacturer's protocol and using a BMG Pherastar MTP reader [BMG-Labtech, Offenburg, Germany].

Test [2] relates to HEK293 FOP control reporter cell line. In words: HEK293 FOP Assay (FOP control vector luciferase reporter). As to conditions: Homo sapiens; HEK293 FOP control reporter cell line, 16 hours incubation, compound dilution series 50 μM to 15 nM. Type of test: cell-based. A digest of the protocol: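 Compound series 50 μM to 15 nM, 3.16-fold steps, were diluted in CAFTY buffer (pH 7.4, 2 mM Ca2+, 0.01% BSA) and tested alongside the TOP reporter line. Human Wnt-3a was added at 2500–5 ng/ml in two-fold steps. The control HEK293 line stably holds an FOP vector whose TCF elements are randomized and non-functional.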

Bounds are passed on as bounds.

Broadly, the IC50 is the concentration needed to halve the response being measured. Lower therefore signals greater potency in that assay. On to `CC1CCCCN1CCNC(=O)c1[nH]cnc1C(=O)Nc1ccc(NC(=O)c2ccccc2Cl)cc1` (stereo not drawn) [Example 153, N^4-{4-[(2-chlorobenzoyl)amino]phenyl}-N^5-[2-(2-methylpiperidin-1-yl)ethyl]-1H-imidazole-4,5-dicarboxamide], for which the values for the IC50 (in test [1]; at TNKS2; in test [2]) were 190 nM, 5 nM and 35000 nM, respectively.

Turning to `CC1CCN(CCNC(=O)c2[nH]cnc2C(=O)Nc2ccc(NC(=O)c3ccccc3Cl)cc2)CC1` [Example 163, N^4-{4-[(2-chlorobenzoyl)amino]phenyl}-N^5-[2-(4-methylpiperidin-1-yl)ethyl]-1H-imidazole-4,5-dicarboxamide], the IC50 amounted to 100 nM in test [1], 10 nM against TNKS2 and 37000 nM in test [2].

Regarding `O=C(Nc1ccc(NC(=O)c2nc[nH]c2C(=O)NCCN2CCCC2)cc1)c1ccccc1Cl` [Example 168, N^4-{4-[(2-chlorobenzoyl)amino]phenyl}-N^5-[2-(pyrrolidin-1-yl)ethyl]-1H-imidazole-4,5-dicarboxamide], the IC50 in test [1] was 80 nM; on TNKS2 it was below 0.5 nM; in test [2], 27000 nM.

Turning to `CC(CNC(=O)c1[nH]cnc1C(=O)Nc1ccc(NC(=O)c2ccc(F)cc2Cl)cc1)N1CCN(C)CC1` (stereo not drawn) [Example 185, N^4-{4-[(2-chloro-4-fluorobenzoyl)amino]phenyl}-N^5-[2-(4-methylpiperazin-1-yl)propyl]-1H-imidazole-4,5-dicarboxamide], the concentration for half-maximal inhibition (IC50) in test [1] is 200 nM; against TNKS2, 20 nM.

As to `O=C(Nc1ccc(NC(=O)c2nc[nH]c2C(=O)NCCN2CCC2)cc1)c1ccccc1Cl` [Example 190, N^5-[2-(azetidin-1-yl)ethyl]-N4-{4-[(2-chlorobenzoyl)amino]phenyl}-1H-imidazole-4,5-dicarboxamide], the results for the IC50 (in test [1]; against TNKS2; in test [2]) were 190 nM, 2 nM and 18000 nM, respectively.

For the molecule `CC1CCCCN1CCNC(=O)c1[nH]cnc1C(=O)Nc1ccc(NC(=O)c2ccc(F)cc2Cl)cc1` (stereo not drawn) [Example 191, N^4-{4-[(2-chloro-4-fluorobenzoyl)amino]phenyl}-N^5-[2-(2-methylpiperidin-1-yl)ethyl]-1H-imidazole-4,5-dicarboxamide], the figures for the half-inhibitory concentration (IC50) (in test [1]; against TNKS2; in test [2]) were 40 nM, 2 nM and 31000 nM, respectively.

For the molecule `O=C(Nc1ccc(NC(=O)c2nc[nH]c2C(=O)NCCCCN2CCCCC2)cc1)c1ccc(F)cc1Cl` [Example 196, N^4-{4-[(2-chloro-4-fluorobenzoyl)amino]phenyl}-N^5-[4-(piperidin-1-yl)butyl]-1H-imidazole-4,5-dicarboxamide], the figures for the IC50 (in test [1]; against TNKS2; in test [2]) were 650 nM, 20 nM and 30000 nM, respectively.

Take `O=C(Nc1ccc(NC(=O)c2nc[nH]c2C(=O)NCCN2CCC(O)CC2)cc1)c1ccccc1Cl` [Example 197, N^4-{4-[(2-chlorobenzoyl)amino]phenyl}-N^5-[2-(4-hydroxypiperidin-1-yl)ethyl]-1H-imidazole-4,5-dicarboxamide]: the half-maximal inhibitory concentration (IC50) in test [1] turned out to be 140 nM; on TNKS2, 1 nM.

As for `O=C(Nc1ccc(NC(=O)c2nc[nH]c2C(=O)NCCN2CCC2)cc1)c1ccc(F)cc1Cl` [Example 198, N^5-[2-(azetidin-1-yl)ethyl]-N^4-{4-[(2-chloro-4-fluorobenzoyl)amino]phenyl}-1H-imidazole-4,5-dicarboxamide], the IC50 in test [1] was 110 nM; against TNKS2, below 0.5 nM.

For `O=C(Nc1ccc(NC(=O)c2nc[nH]c2C(=O)NCCCN2CCOCC2)cc1)c1ccc(F)cc1Cl` [Example 204, N^4-{4-[(2-chloro-4-fluorobenzoyl)amino]phenyl}-N^5-[3-(morpholin-4-yl)propyl]-1H-imidazole-4,5-dicarboxamide], the figures for the IC50 (in test [1]; on TNKS2; in test [2]) were 310 nM, 20 nM and 34500 nM, respectively.

As to `O=C(Nc1ccc(NC(=O)c2nc[nH]c2C(=O)NCCN2CCCC(O)C2)cc1)c1ccc(F)cc1Cl` (stereo not drawn) [Example 229, N^4-{4-[(2-chloro-4-fluorobenzoyl)amino]phenyl}-N^5-[2-(3-hydroxypiperidin-1-yl)ethyl]-1H-imidazole-4,5-dicarboxamide], the IC50 in test [1] amounted to 110 nM; against TNKS2, 4 nM; in test [2], 44500 nM.

For `CN1CCN(CCNC(=O)c2[nH]cnc2C(=O)Nc2ccc(NC(=O)c3ccc(F)cc3Cl)cc2)CC1` [Example 238, N^4-{4-[(2-chloro-4-fluorobenzoyl)amino]phenyl}-N^5-[2-(4-methylpiperazin-1-yl)ethyl]-1H-imidazole-4,5-dicarboxamide], the IC50 came out at 180 nM in test [1], 2 nM against TNKS2 and 29000 nM in test [2].

(Values after patent US9884063B2, “Amido-substituted azole compounds” (Bayer Pharma Aktiengesellschaft, priority 2014, dated 2018).)
